Measured values: patent US20060069132A1, “Azolecarboxamide herbicides” (priority 2004, published 2006)

Experiments:
corn = assay: Test B pre-/postemergence herbicide test; type: in vivo, Zea mays; settings: for Plant response rating, Corn: preemergence; for Corn plant response rating: postemergence, visual rating, scale 0 (no effect) to 100 (complete control)
In short: (§1)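 Seeds were planted and treated preemergence with compounds formulated in a non-phytotoxic solvent mixture containing surfactant, while plants at the 1- to 4-leaf stage (2 to 18 cm) received postemergence sprays. Flooded paddy plants were grown to the 2-leaf stage. After 13 to 15 days in a greenhouse, injury was visually rated 0–100 against untreated controls.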

morningglory [1] = assay: Test B pre-/postemergence herbicide test; type: in vivo, Ipomoea coccinea; settings: for Plant response rating, Morningglory: preemergence; for Morningglory plant response rating: postemergence, visual rating, scale 0 (no effect) to 100 (complete control)
In short: (§2)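 Flooded paddy rice and barnyardgrass were treated at the 2-leaf stage; upland plantings received compound either on sown seed or on 1- to 4-leaf seedlings. All were kept 13–15 days in a greenhouse and scored visually, 0–100, relative to untreated plants.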

lambsquarters = assay: Test B pre-/postemergence herbicide test; type: in vivo, Chenopodium album; settings: for Plant response rating, Lambsquarters: preemergence; for Lambsquarters plant response rating: postemergence, visual rating, scale 0 (no effect) to 100 (complete control)
In short: as §1

barnyardgrass [2] = assay: Test B flooded paddy test; type: in vivo, Echinochloa crus-galli; settings: 1000 g ai/ha, visual rating, scale 0 to 100 (0 no effect, 100 complete control), 13 to 15 days
In short: (§3)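 After treating 2-leaf paddy plants or 2–18 cm postemergence plants (1 to 4 leaves) with formulated chemical, researchers kept them in a greenhouse for 13–15 days. Effects were judged visually versus controls: 0 indicates none, 100 total control.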

redroot pigweed = assay: Test A pre-/postemergence herbicide test; type: in vivo, Amaranthus retroflexus
In short: (§4)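 Plants are held in greenhouse about ten days after treatment, then compared with untreated controls and scored 0 (no effect) to 100 (complete control). Preemergence dosing is a directed soil spray on sown sandy loam; postemergence dosing is spray to runoff at 2–10 cm height.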

large crabgrass [3] = assay: Test A pre-/postemergence herbicide test; type: in vivo, Digitaria sanguinalis
In short: as §4

blackgrass = assay: Test B postemergence herbicide test; type: in vivo, Alopecurus myosuroides; settings: postemergence, visual rating, scale 0 (no effect) to 100 (complete control)
In short: as §3

giant foxtail [4] = assay: Test B pre-/postemergence herbicide test; type: in vivo, Setaria faberi; settings: for Plant response rating, Foxtail, Giant: preemergence; for Foxtail, Giant plant response rating: postemergence, visual rating, scale 0 (no effect) to 100 (complete control)
In short: as §1

morningglory [5] = assay: Test A pre-/postemergence herbicide test; type: in vivo, Ipomoea spp.
In short: as §4

pigweed = assay: Test B pre-/postemergence herbicide test; type: in vivo, Amaranthus retroflexus; settings: for Plant response rating, Pigweed: preemergence; for Pigweed plant response rating: postemergence, visual rating, scale 0 (no effect) to 100 (complete control)
In short: as §1

wild oat = assay: Test B postemergence herbicide test; type: in vivo, Avena fatua; settings: postemergence, visual rating, scale 0 (no effect) to 100 (complete control)
In short: as §3

barnyardgrass [6] = assay: Test B pre-/postemergence herbicide test; type: in vivo, Echinochloa crus-galli; settings: for Plant response rating, Barnyardgrass: preemergence; for Barnyardgrass plant response rating: postemergence, visual rating, scale 0 (no effect) to 100 (complete control)
In short: as §2

large crabgrass [7] = assay: Test B pre-/postemergence herbicide test; type: in vivo, Digitaria sanguinalis; settings: for Plant response rating, Crabgrass, Large: preemergence; for Crabgrass, Large plant response rating: postemergence, visual rating, scale 0 (no effect) to 100 (complete control)
In short: as §1

velvetleaf [8] = assay: Test B pre-/postemergence herbicide test; type: in vivo, Abutilon theophrasti; settings: for Plant response rating, Velvetleaf: preemergence; for Velvetleaf plant response rating: postemergence, visual rating, scale 0 (no effect) to 100 (complete control)
In short: as §1

barnyardgrass [9] = assay: Test A pre-/postemergence herbicide test; type: in vivo, Echinochloa crus-galli
In short: as §4

wheat = assay: Test B postemergence herbicide test; type: in vivo, Triticum aestivum; design: key to Wheat plant response rating: 0 = no effect, 100 = complete control; settings: postemergence, 500 g ai/ha; visual rating, scale 0 (no effect) to 100 (complete control)
In short: as §3

giant foxtail [10] = assay: Test A pre-/postemergence herbicide test; type: in vivo, Setaria faberi
In short: as §4

velvetleaf [11] = assay: Test A pre-/postemergence herbicide test; type: in vivo, Abutilon theophrasti
In short: as §4

cocklebur = assay: Test B pre-/postemergence herbicide test; type: in vivo, Xanthium strumarium; settings: for Plant response rating, Cocklebur: preemergence; for Cocklebur plant response rating: postemergence, visual rating, scale 0 (no effect) to 100 (complete control)
In short: as §2

ducksalad = assay: Test B flooded paddy test; type: in vivo, Heteranthera limosa; settings: 1000 g ai/ha, visual rating, scale 0 to 100 (0 no effect, 100 complete control), 13 to 15 days
In short: as §3

[12] = tested on: small flower umbrella sedge; assay: Test B flooded paddy test; type: in vivo, Cyperus difformis; settings: 1000 g ai/ha, visual rating, scale 0 to 100 (0 no effect, 100 complete control), 13 to 15 days
In short: as §3

rice = assay: Test B flooded paddy test; type: in vivo, Oryza sativa; settings: 1000 g ai/ha, visual rating, scale 0 to 100 (0 no effect, 100 complete control), 13 to 15 days
In short: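 Visual ratings, 0 (no effect) to 100 (complete control), made versus controls after 13–15 d greenhouse. Paddy plants treated at 2-leaf stage; postemergence plants at 1- to 4-leaf stage, 2–18 cm tall.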

Surinam grass = assay: Test B pre-/postemergence herbicide test; type: in vivo, Urochloa decumbens; settings: for Plant response rating, Surinam Grass: preemergence; for Surinam Grass plant response rating: postemergence, visual rating, scale 0 (no effect) to 100 (complete control)
In short: as §1

[13] = 500 g ai/ha, visual rating 0-100, 0 no effect, 100 complete control
[14] = 125 g ai/ha, 0 to 100 scale, 0 is no effect, 100 is complete control
[15] = Postemergence, 500 g ai/ha, 0 to 100 scale, 0 no effect, 100 complete control
[16] = Postemergence, 2000 g ai/ha, 0 to 100 scale, 0 no effect, 100 complete control
[17] = Preemergence, 2000 g ai/ha, visual rating, 0 to 100 scale (0 no effect, 100 complete control)
[18] = preemergence, 500 g ai/ha, visual injury, 0 to 100 scale (0 no effect, 100 complete control)
[19] = Preemergence, 500 g ai/ha, visual rating, 0 to 100 scale (0 no effect, 100 complete control)

CC(=NO)c1ccnc(NC(=O)c2cc(C(C)(C)C)nn2C)n1 [Compound 164]
Plant response rating, Corn (corn; [13]): 0 | Corn plant response rating (corn; 125 g ai/ha): 0 | Corn plant response rating (corn; 500 g ai/ha): 10 | Plant response rating, Corn (corn; [14]): 0 | Plant response rating, Morningglory (morningglory [1]; [13]): 0 | Morningglory plant response rating (morningglory [1]; 125 g ai/ha): 0 | Morningglory plant response rating (morningglory [1]; 500 g ai/ha): 0 | Plant response rating, Morningglory (morningglory [1]; [14]): 0 | Plant response rating, Lambsquarters (lambsquarters; [13]): 0 | Lambsquarters plant response rating (lambsquarters; 125 g ai/ha): 0 | Lambsquarters plant response rating (lambsquarters; 500 g ai/ha): 10 | Plant response rating, Lambsquarters (lambsquarters; [14]): 0 | Barnyardgrass plant response rating (barnyardgrass [2]): 0 | Pigweed plant response rating (redroot pigweed; [15]): 0 | Plant response rating, Pigweed (redroot pigweed; [16]): 0 | Pigweed plant response rating (redroot pigweed; [17]): 0 | Pigweed plant response rating (redroot pigweed; [18]): 0 | Crabgrass, Large plant response rating (large crabgrass [3]; [15]): 10 | Plant response rating, Crabgrass, Large (large crabgrass [3]; [16]): 10 | Crabgrass, Large plant response rating (large crabgrass [3]; [19]): 0 | Crabgrass, Large plant response rating (large crabgrass [3]; [17]): 0 | Blackgrass plant response rating (blackgrass; 125 g ai/ha): 0 | Blackgrass plant response rating (blackgrass; 500 g ai/ha): 0 | Plant response rating, Foxtail, Giant (giant foxtail [4]; [13]): 0 | Foxtail, Giant plant response rating (giant foxtail [4]; 125 g ai/ha): 0 | Foxtail, Giant plant response rating (giant foxtail [4]; 500 g ai/ha): 0 | Plant response rating, Foxtail, Giant (giant foxtail [4]; [14]): 0 | Morningglory plant response rating (morningglory [5]; [15]): 10 | Plant response rating, Morningglory (morningglory [5]; [16]): 5 | Morningglory plant response rating (morningglory [5]; [19]): 0 | Morningglory plant response rating (morningglory [5]; [17]): 0 | Plant response rating, Pigweed (pigweed; [13]): 0 | Pigweed plant response rating (pigweed; 125 g ai/ha): 0 | Pigweed plant response rating (pigweed; 500 g ai/ha): 0 | Plant response rating, Pigweed (pigweed; [14]): 0 | Oat, Wild plant response rating (wild oat; 125 g ai/ha): 0 | Oat, Wild plant response rating (wild oat; 500 g ai/ha): 0 | Plant response rating, Barnyardgrass (barnyardgrass [6]; [13]): 0 | Barnyardgrass plant response rating (barnyardgrass [6]; 125 g ai/ha): 0 | Barnyardgrass plant response rating (barnyardgrass [6]; 500 g ai/ha): 0 | Plant response rating, Barnyardgrass (barnyardgrass [6]; [14]): 0 | Plant response rating, Crabgrass, Large (large crabgrass [7]; [13]): 0 | Crabgrass, Large plant response rating (large crabgrass [7]; 125 g ai/ha): 0 | Crabgrass, Large plant response rating (large crabgrass [7]; 500 g ai/ha): 0 | Plant response rating, Crabgrass, Large (large crabgrass [7]; [14]): 0 | Plant response rating, Velvetleaf (velvetleaf [8]; [13]): 0 | Velvetleaf plant response rating (velvetleaf [8]; 125 g ai/ha): 0 | Velvetleaf plant response rating (velvetleaf [8]; 500 g ai/ha): 0 | Plant response rating, Velvetleaf (velvetleaf [8]; [14]): 0 | Barnyardgrass plant response rating (barnyardgrass [9]; [15]): 10 | Plant response rating, Barnyardgrass (barnyardgrass [9]; [16]): 10 | Barnyardgrass plant response rating (barnyardgrass [9]; [19]): 0 | Barnyardgrass plant response rating (barnyardgrass [9]; [17]): 0 | Wheat plant response rating (wheat): 0 | Foxtail, Giant plant response rating (giant foxtail [10]; [15]): 0 | Plant response rating, Foxtail, Giant (giant foxtail [10]; [16]): 0 | Foxtail, Giant plant response rating (giant foxtail [10]; [19]): 0 | Foxtail, Giant plant response rating (giant foxtail [10]; [17]): 0 | Velvetleaf plant response rating (velvetleaf [11]; [15]): 5 | Plant response rating, Velvetleaf (velvetleaf [11]; [16]): 0 | Velvetleaf plant response rating (velvetleaf [11]; [17]): 0 | Velvetleaf plant response rating (velvetleaf [11]; [18]): 0 | Plant response rating, Cocklebur (cocklebur; [13]): 0 | Cocklebur plant response rating (cocklebur; 125 g ai/ha): 0 | Cocklebur plant response rating (cocklebur; 500 g ai/ha): 0 | Plant response rating, Cocklebur (cocklebur; [14]): 0 | Ducksalad plant response rating (ducksalad): 0 | Sedge, Umbrella plant response rating [12]: 0 | Rice plant response rating (rice): 0 | Plant response rating, Surinam Grass (Surinam grass; [13]): 0 | Surinam Grass plant response rating (Surinam grass; 125 g ai/ha): 0 | Surinam Grass plant response rating (Surinam grass; 500 g ai/ha): 10 | Plant response rating, Surinam Grass (Surinam grass; [14]): 0
